Experimental findings from PubChem BioAssay (NCI) are described below.

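Five compound concentrations were applied to cells in 96-well plates for 48 hours; endpoints were derived by simple linear interpolation of the resulting dose-response curve. TGI denotes the concentration required for complete inhibition of growth.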

What all share (test): NCI tumour cell line growth inhibition, 48 h
Assay [1] deals with SW-620 colon.
The subject of assay [2] is OVCAR-3 ovarian.
Assay [3] deals with SK-MEL-28 melanoma.
The subject of assay [4] is SNB-19 CNS.
Assay [5] relates to HS 578T breast.
The test system of assay [6] is SK-OV-3 ovarian.
Assay [7] has as its system ACHN renal.
The subject of assay [8] is MDA-MB-435.
In assay [9] the test system is M14 melanoma.
Assay [10] deals with RPMI-8226 leukemia.
The subject of assay [11] is HCT-15 colon.
The subject of assay [12] is LOX IMVI melanoma.
The test system of assay [13] is RXF 393 renal.
Assay [14] has as its system OVCAR-5 ovarian.
Assay [15] concerns A498 renal.
Assay [16] concerns SNB-75 CNS.

As to `COc1cc2c(cc1OC)C(=O)N(c1ccc(OCCN3CCCC3)cc1)C2=O`, the TGI in assay [1], in assay [2], in [3], in assay [4], in assay [5] and in [6] was more than 100 µM each time. Also, the TGI in [7], in [8], in [9], in assay [10], in [11] and in [12] was more than 100 µM throughout. For the same compound, the TGI in [13], in assay [14] and in assay [15] was more than 100 µM in each case.
Turning to `Cn1c(=O)c2c(nc(N/N=C3/SCC(=O)N3Cc3ccccc3)n2C)n(C)c1=O`, the TGI in [2] was 90.4 µM; in assay [3] it was more than 100 µM; in assay [4], more than 100 µM; in assay [5] it was more than 100 µM; in assay [6] it was more than 100 µM; in [7] it was more than 100 µM. Also, the TGI in assay [8] is more than 100 µM; in assay [9] it was more than 100 µM; in [10], 66.3 µM; in [11] it was more than 100 µM; in assay [13] it was more than 100 µM; in [14], more than 100 µM. The compound also had a TGI in assay [15] of more than 100 µM.
Consider `CC(=O)NN(c1ccccc1)C1CCN(c2ccccc2)N1C(C)=O` (stereo unspecified), for which the TGI in assay [1], in assay [2], in assay [16], in assay [3], in assay [4] and in assay [5] was more than 10 µM in each case. Also, the TGI in [6], in [7], in assay [8], in [9], in assay [10] and in assay [11] was more than 10 µM in each case. Further, the TGI in [12], in assay [13] and in [14] was more than 10 µM in each case.
For `CC(=O)N[C@@H](Cc1ccc(O)cn1)C(=O)NC1CCCCC1`, the TGI in [1], in assay [2], in assay [3], in [4], in assay [5] and in [6] was more than 100 µM throughout. Also, the TGI in [7], in assay [8], in [9], in [10], in [11] and in assay [12] was more than 100 µM in each case. Besides, the TGI in [14] and in assay [15] was more than 100 µM throughout.
Take `Cc1ccc(-n2cc(-c3ccc(Cl)cc3)c3c(=N)n(N)cnc32)cc1`: the TGI in [1] is 25.1 µM; in assay [2] it was 26.5 µM; in assay [16], 25.9 µM; in assay [3] it was 26.7 µM; in [4], 24.4 µM; in assay [5], 17.5 µM. Also, the TGI in [6] amounted to 31.5 µM; in assay [7] it was 29.7 µM; in assay [8] it was 23.1 µM; in assay [9], 17.2 µM; in [11], 28.9 µM; in assay [12], 29.8 µM. Moreover, the TGI in [13] turned out to be 15.7 µM; in assay [14] it was 27.9 µM; in assay [15], 29.5 µM.
Take `O=C(O)C1(C(O)c2ccccc2)SCCCS1` (stereo unspecified): the TGI in assay [1], in assay [2], in assay [16], in [3], in [4] and in assay [5] was more than 10 µM throughout. For the same compound, the TGI in assay [6], in assay [7], in [8], in assay [9], in assay [11] and in [12] was more than 10 µM in each case. Moreover, the TGI in assay [13], in [14] and in [15] was more than 10 µM in each case.
For `C=CCN1C(=O)CC(=O)N(NC2=NNC3(C(=O)N2)c2ccccc2-c2ccccc23)C1=S`, the TGI in assay [1] was more than 100 µM; in [2], more than 100 µM; in assay [16], more than 100 µM; in assay [3] it was more than 100 µM; in assay [4], more than 100 µM; in assay [5], 66.1 µM. Besides, the TGI in assay [6], in assay [7], in assay [8], in [9], in assay [11] and in [12] was more than 100 µM throughout. Besides, the TGI in assay [13], in assay [14] and in [15] was more than 100 µM throughout.
On to `CCCCCCCCCCCCC1N=C(N)N2CCCC2=C1C(=O)OC` (stereo unspecified), for which the TGI in [1] was found to be 3.05 µM; in [2], 5.11 µM; in assay [16], 3.05 µM; in [3] it was 3.1 µM; in [4], 3.41 µM; in [5], 4.17 µM. The TGI stood at 23.8 µM in assay [6]; 19.5 µM in [7]; 3.09 µM in assay [8]; 3.16 µM in assay [9]; 3.11 µM in assay [11]; 69.4 µM in assay [13]. Moreover, the TGI was 13 µM in assay [14] and 47.1 µM in [15].
With `c1ccc(-c2c(-c3[nH]c4ccccc4c3-c3ccccc3)[nH]c3ccccc23)cc1`, the TGI in assay [1] was found to be 13.1 µM; in assay [2] it was 5.44 µM; in [16] it was 14.9 µM; in assay [3], 25.7 µM; in assay [4], 19.3 µM; in [5] it was 51.6 µM. Besides, the TGI in [6] came to 21 µM; in assay [7], 11.6 µM; in assay [8], 14.9 µM; in assay [9], 14.9 µM; in assay [10], 11.9 µM; in assay [11], 14.3 µM. The figures for the TGI in [12], in assay [13] and in assay [14] were 4.06 µM, 3.72 µM and 23.4 µM, respectively.
